Data published in paper PMC6980355 (Journal of medicinal chemistry, 2019).
Converted amounts (≈) assume the structure as drawn.

Assays:
E. coli (ΔtolC) = assay type: cell-based; details: for MIC E. coli (ΔtolC): knockout of efflux pump component TolC; for MIC E. coli (ΔtolC) +PMBN: PMBN 8 μg/mL
[1] = tested on: P. aeruginosa (ΔmexAB, etc.); assay type: cell-based; details: knockouts of MexAB-OprM, MexCD-OprJ, MexEF-OprN
[2] = tested on: P. aeruginosa mexT mutants; assay type: cell-based; details: for potency reduction by any mexT mutation: any of the three individual mexT mutations
pKa = assay type: physicochemical
P. aeruginosa BC = P. aeruginosa BC (Pseudomonas aeruginosa, UniProt P37798); experiment: P. aeruginosa BC enzyme assay; details: relative to parent 4a
E. coli (ATCC 25922) = experiment: Bacterial Cytological Profiling; assay type: cell-based; details: ~3-fold the MIC for 2 hours (for 1); fluorescence microscopy

Sequence of P. aeruginosa BC (P37798 whole entry): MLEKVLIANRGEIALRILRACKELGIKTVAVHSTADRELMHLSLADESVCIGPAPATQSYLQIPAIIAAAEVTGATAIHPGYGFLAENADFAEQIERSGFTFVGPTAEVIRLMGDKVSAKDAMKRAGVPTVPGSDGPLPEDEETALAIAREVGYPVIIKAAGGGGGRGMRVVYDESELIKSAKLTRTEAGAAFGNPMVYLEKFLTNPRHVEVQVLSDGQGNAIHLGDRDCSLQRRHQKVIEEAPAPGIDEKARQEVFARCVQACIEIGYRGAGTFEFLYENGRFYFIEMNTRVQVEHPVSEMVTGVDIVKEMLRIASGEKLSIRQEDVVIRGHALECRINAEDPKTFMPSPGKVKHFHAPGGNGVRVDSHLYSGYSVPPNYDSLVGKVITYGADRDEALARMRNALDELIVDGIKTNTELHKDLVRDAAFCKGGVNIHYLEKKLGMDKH

SMILES | MIC E. coli (ΔtolC) (E. coli (ΔtolC)) [µg/mL] | MIC P. aeruginosa (ΔmexAB, etc.) [1] [µg/mL] | MIC E. coli (ΔtolC) +PMBN (E. coli (ΔtolC)) [µg/mL] | also measured
NCC1(O)CCN(c2nc3nc(N)ncc3cc2-c2c(Cl)cccc2Cl)C1 (stereo not drawn) [13e, 1-[2-amino-6-(2,6-dichlorophenyl)pyrido[2,3-d]pyrimidin-7-yl]-3-(aminomethyl)pyrrolidin-3-ol] | 1 (≈ 2.47 µM) | >64 | – | –
Nc1ncc2cc(-c3c(Cl)cccc3Cl)c(N)nc2n1 [4a] | 0.5 (≈ 1.63 µM) | 16 (≈ 52.3 µM) | 0.25 (≈ 0.817 µM) | –
Cc1ncc(-c2cccc(Cl)c2-c2cc3cnc(N)nc3nc2N2C[C@@H]3[C@@H](N)[C@@H]3C2)s1 [14d, 7-[(1R,5S)-6-amino-3-azabicyclo[3.1.0]hexan-3-yl)-6-[2-chloro-6-(2-methylthiazol-5-yl)phenyl]pyrido[2,3-d]pyrimidin-2-amine] | 0.008 (≈ 0.0178 µM) | 1 (≈ 2.22 µM) | – | –
O=C(O)c1cn(C2CC2)c2cc(N3CCNCC3)c(F)cc2c1=O [ciprofloxacin, reference compound] | – | – | – | resistance of mexT mutants to the antibiotic ([2]; data not shown): elevated resistance
Nc1ncc2cc(-c3c(Br)cccc3Br)c(N)nc2n1 [compound 1, reference compound] | 0.5 (≈ 1.27 µM) | 16 (≈ 40.5 µM) | 0.12 (≈ 0.304 µM) | pKa (pKa): 4.8; potency reduction by any mexT mutation [2]: > 8 fold
Nc1ncc2cc(-c3c(Cl)cccc3Cl)c(N3C[C@@H]4[C@@H](N)[C@@H]4C3)nc2n1 [13h, 7-((1R,5S,6s)-6-amino-3-azabicyclo[3.1.0]hexan-3-yl)-6-(2,6-dichlorophenyl)pyrido[2,3-d]pyrimidin-2-amine] | – | – | – | improvement in BC inhibition (IC50) compared to 4a (P. aeruginosa BC): ~10 fold
Nc1ncc2cc(-c3ccccc3-c3ccccc3)c(N)nc2n1 [4b, 6-([1,1'-biphenyl]-2-yl)pyrido[2,3-d]pyrimidine-2,7-diamine] | 0.5 (≈ 1.6 µM) | – | 0.25 (≈ 0.798 µM) | –
Nc1ncc2cc(-c3c(Cl)cccc3-c3cccnc3)c(N3C[C@@H]4[C@@H](N)[C@@H]4C3)nc2n1 [14a, 7-[(1R,5S)-6-amino-3-azabicyclo[3.1.0]hexan-3-yl)-6-[2-chloro-6-(3-pyridyl)phenyl]pyrido[2,3-d]pyrimidin-2-amine] | 0.03 (≈ 0.0698 µM) | – | – | potency reduction by any mexT mutation [2]: unaffected
Nc1ncc2cc(-c3c(Cl)cccc3-c3cccnc3)c(N)nc2n1 [4d, 6-[2-chloro-6-(3-pyridyl)phenyl]pyrido[2,3-d]pyrimidine-2,7-diamine] | – | 4 (≈ 11.5 µM) | – | –
NCC1CCN(c2nc3nc(N)ncc3cc2-c2c(Cl)cccc2Cl)C1 (stereo not drawn) [13f, 7-[3-(aminomethyl)pyrrolidin-1-yl]-6-(2,6-dichlorophenyl)pyrido[2,3-d]pyrimidin-2-amine] | – | – | – | improvement in BC inhibition (IC50) compared to 4a (P. aeruginosa BC): 5 fold; cytological profile (E. coli (ATCC 25922)): cytological profiles very similar to each other and to parent compound 1
NCC1CCN(c2nc3nc(N)ncc3cc2-c2c(Cl)cccc2Cl)CC1 [13g, 7-[4-(aminomethyl)-1-piperidyl]-6-(2,6-dichlorophenyl)pyrido[2,3-d]pyrimidin-2-amine] | 1 (≈ 2.48 µM) | 64 (≈ 159 µM) | – | –
CC(C)COc1cccc(Cl)c1-c1cc2cnc(N)nc2nc1N [4f, 6-(2-chloro-6-isobutoxy-phenyl)pyrido[2,3-d]pyrimidine-2,7-diamine] | 0.25 (≈ 0.727 µM) | – | – | –
Nc1ncc2cc(-c3ccccc3-c3cccnc3)c(N)nc2n1 [4c, 6-[2-(3-pyridyl)phenyl]pyrido[2,3-d]pyrimidine-2,7-diamine] | 2 (≈ 6.36 µM) | 16 (≈ 50.9 µM) | 0.5 (≈ 1.59 µM) | –
Nc1ncc2cc(-c3c(Cl)cccc3Cl)c(N3CCC(N)(CO)C3)nc2n1 (stereo not drawn) [13c, [3-amino-1-[2-amino-6-(2,6-dichlorophenyl)pyrido[2,3-d]pyrimidin-7-yl]pyrrolidin-3-yl]methanol] | 1 (≈ 2.47 µM) | – | – | –
Nc1ncc2cc(-c3c(Cl)cccc3-c3ccncc3)c(N3C[C@@H]4[C@@H](N)[C@@H]4C3)nc2n1 [14b, 7-[(1R,5S)-6-amino-3-azabicyclo[3.1.0]hexan-3-yl)-6-[2-chloro-6-(4-pyridyl)phenyl]pyrido[2,3-d]pyrimidin-2-amine] | 0.03 (≈ 0.0698 µM) | 2 (≈ 4.65 µM) | 0.015 (≈ 0.0349 µM) | –
NCC1(F)CCN(c2nc3nc(N)ncc3cc2-c2c(Cl)cccc2Cl)C1 (stereo not drawn) [13d, 7-[3-(aminomethyl)-3-fluoro-pyrrolidin-1-yl]-6-(2,6-dichlorophenyl)pyrido[2,3-d]pyrimidin-2-amine] | – | – | 1 (≈ 2.46 µM) | –
CC(C)COc1cccc(Cl)c1-c1cc2cnc(N)nc2nc1N1C[C@@H]2[C@@H](N)[C@@H]2C1 [14e, 7-[(1R,5S)-6-amino-3-azabicyclo[3.1.0]hexan-3-yl)-6-(2-chloro-6-isobutoxy-phenyl)pyrido[2,3-d]pyrimidin-2-amine] | 0.03 (≈ 0.0706 µM) | – | 0.015 (≈ 0.0353 µM) | cytological profile (E. coli (ATCC 25922)): cytological profiles very similar to each other and to parent compound 1; potency reduction by any mexT mutation [2]: unaffected
COc1ncc(-c2cccc(Cl)c2-c2cc3cnc(N)nc3nc2N2C[C@@H]3[C@@H](N)[C@@H]3C2)cc1F [14c, 7-[(1R,5S)-6-amino-3-azabicyclo[3.1.0]hexan-3-yl)-6-[2-chloro-6-(5-fluoro-6-methoxy-3-pyridyl)phenyl]pyrido[2,3-d]pyrimidin-2-amine] | 0.015 (≈ 0.0314 µM) | 2 (≈ 4.18 µM) | 0.008 (≈ 0.0167 µM) | –
